The values below come from patent US4667027A, “Cephem compounds and their production” (Takeda Chemical Industries, Ltd., priority 1984, dated 1987).

Converted amounts (≈) assume the structure as drawn.

Data set [1] has as its system cephalosporinase. Put plainly: β-lactamase stability test, growth inhibition zone with cephalosporinase. The format is cell-based. Conditions: cephalosporinase added; test organism Escherichia coli PG8; drug 100 μg/ml; nutrient agar pH 7.0. An excerpt: (§1) TAN-591A, B, C are stable to various β-lactamases. The results of stability test of the antibiotic to two β-lactamases employing Escherichia coli PG8 as a test organism are shown in Table 5. […]

Data set [2] is described as follows: Solubility in solvents. The data set is classed as physicochemical. As to conditions: hydrochloride.
Data set [3] has as its system Escherichia coli PG8. Put plainly: β-lactamase stability test, growth inhibition zone, no β-lactamase added. The data set is classed as cell-based. Conditions: β-lactamase not added; test organism Escherichia coli PG8; drug 100 μg/ml; nutrient agar pH 7.0; read-out: diameter of growth inhibition zone.
Description: as §1

Data set [4] deals with Bacillus megaterium IFO 12108. Put plainly: Antimicrobial spectrum, minimal inhibitory concentration (agar dilution). The data set is classed as cell-based. As to conditions: Priestia megaterium, IFO12108, hydrochloride, inoculum 1 loopful of about 10^6/ml. An excerpt:
(§2) *Culture medium: 17.5 g of Bacto antibiotic medium 3 (Difco), 5 g of Bact
(§3) yeast extract (Difco), 20 g of Bacto agar (Difco), 1 l of distilled water
(§4) The amount of inoculated microorganism: 1 loopful of about 10^6 /ml o
(§5) microorganism suspension.
(§6) *Medium: Bacto antibiotic medium (Difco) 17.5 g, Bacto yeast extract
(§7) (Difco) 5 g, Bacto agar (Difco) 20 g, distilled water 1 l, pH not
In general terms: Agar dilution tests growth on a series of plates holding different concentrations.

Data set [5] relates to Escherichia coli NIHJ JC-2. The data set is described as above. The data set is classed as cell-based. As to conditions: NIHJJC2, hydrochloride, inoculum 1 loopful of about 10^6/ml.
Description: as §2, §3, §4, §5, §6, §7

Data set [6] concerns Acinetobacter calcoaceticus IFO 12552. The description is as above. The data set is classed as cell-based. As to conditions: IFO12552, hydrochloride, inoculum 1 loopful of about 10^6/ml.
Description: as §2, §3, §4, §5, §6, §7

The test system of data set [7] is Klebsiella pneumoniae IFO 3317. The data set is described as above. As to conditions: IFO3317, hydrochloride, inoculum 1 loopful of about 10^6/ml. The data set is classed as cell-based.
Description: as §2, §3, §4, §5, §6, §7

The subject of data set [8] is Citrobacter freundii IFO 12681. The data set is described as above. The format is cell-based. Conditions: IFO12681, hydrochloride, inoculum 1 loopful of about 10^6/ml.
Description: as §2, §3, §4, §5, §6, §7

Data set [9] relates to Proteus vulgalis IFO 3988. The data set is described as above. Conditions: hydrochloride, inoculum 1 loopful of about 10^6/ml. The format is cell-based.
Description: as §2, §3, §4, §5, §6, §7

Data set [10] deals with Bacillus subtilis NIHJ PCI 219. Described as above. The data set is classed as cell-based. As to conditions: hydrochloride, inoculum 1 loopful of about 10^6/ml.
Description: as §2, §3, §4, §5, §6, §7

Data set [11] deals with Serratia marcescens IFO 12648. The description is as above. Conditions: IFO12648, hydrochloride, inoculum 1 loopful of about 10^6/ml. The format is cell-based.
Description: as §2, §3, §4, §5, §6, §7

Data set [12] deals with Pseudomonas aeruginosa IFO 3080. The data set is described as above. The format is cell-based. Conditions: IFO3080, hydrochloride, inoculum 1 loopful of about 10^6/ml.
Description: as §2, §3, §4, §5, §6, §7

Data set [13] has as its system Alcaligenes faecalis IFO 13111. The description is as above. Conditions: IFO13111, hydrochloride, inoculum 1 loopful of about 10^6/ml. The format is cell-based.
Description: as §2, §3, §4, §5, §6, §7

Data set [14] concerns Salmonella typhimurium IFO 12529. The description is as above. As to conditions: Salmonella enterica, hydrochloride, inoculum 1 loopful of about 10^6/ml. The format is cell-based.
Description: as §2, §3, §4, §5, §6, §7

Data set [15] deals with Staphylococcus aureus FDA 209P. Described as above. The data set is classed as cell-based. As to conditions: FDA209P, hydrochloride, inoculum 1 loopful of about 10^6/ml.
Description: as §2, §3, §4, §5, §6, §7

For data set [16], the system named is Brevibacterium thiogenitalis ATCC 19240. The data set is described as above. Conditions: Corynebacterium glutamicum, ATCC19240, hydrochloride, inoculum 1 loopful of about 10^6/ml. The data set is classed as cell-based.
Description: as §2, §3, §4, §5, §6, §7

Data set [17] concerns penicillinase. Put plainly: β-lactamase stability test, growth inhibition zone with penicillinase. The format is cell-based. As to conditions: penicillinase added; test organism Escherichia coli PG8; drug 100 μg/ml; nutrient agar pH 7.0.
Description: as §1

Setting [18] is: dimethylsulfoxide, methanol, acetone, ethyl acetate.
The mark [19] stands for this setting: water, aqueous acetone, aqueous alcohol.

By zone of inhibition is commonly meant the size of the clear area around the sample on an inoculated plate. The MIC is the smallest concentration in the dilution series that meets the test's criterion for growth inhibition.

With `NCCCCC(NC(=O)C(CO)NC(=O)C(N)CO)C(O)CC(=O)OCC1=C(C(=O)O)N2C(=O)C(NC=O)(NC(=O)CCCC(N)C(=O)O)C2SC1` (stereo not drawn) [TAN-591B], the “diameter of growth inhibition zone” value in data set [1] and in data set [17] was 23 mm throughout. Besides, the figures for the Solubility entry in data set [2] (setting [18]) and in data set [2] (setting [19]) were “Sparingly soluble” and “Easily soluble”, respectively. The zone of inhibition at 100 µg/mL in [3] is 23 mm. For the same compound, the MIC was 12.5 µg/mL (≈ 16.4 µM) in [4]; 25 µg/mL (≈ 32.8 µM) in data set [5]; 3.13 µg/mL (≈ 4.1 µM) in data set [6]; 50 µg/mL (≈ 65.5 µM) in [7]; 50 µg/mL (≈ 65.5 µM) in data set [8]; 25 µg/mL (≈ 32.8 µM) in data set [9]. Also, the MIC was 25 µg/mL (≈ 32.8 µM) in data set [10]; 50 µg/mL (≈ 65.5 µM) in data set [11]; greater than 100 µg/mL in [12]; 12.5 µg/mL (≈ 16.4 µM) in [13]; 25 µg/mL (≈ 32.8 µM) in data set [14]; greater than 100 µg/mL in [15]. Also, 6.25 µg/mL (≈ 8.19 µM) was the least that counted as inhibitory in [16] (MIC).
Regarding `N=C(N)NCCCC(NC(=O)C(N)CO)C(O)CC(=O)OCC1=C(C(=O)O)N2C(=O)C(NC(=O)CCCC(N)C(=O)O)C2SC1` (stereo not drawn) [TAN-592D], the Solubility result in data set [2] (setting [18]) was “Sparingly soluble”; in [2] (setting [19]), “Easily soluble”. Also, the MIC in [4] is 1.56 µg/mL (≈ 2.36 µM); in data set [5] it was greater than 50 µg/mL; in data set [6], greater than 50 µg/mL; in data set [7], greater than 50 µg/mL; in data set [8] it was greater than 50 µg/mL; in data set [9] it was 50 µg/mL (≈ 75.7 µM). Moreover, the MIC in data set [10] is 1.56 µg/mL (≈ 2.36 µM); in [11] it was greater than 50 µg/mL; in data set [12] it was greater than 50 µg/mL; in [13], 25 µg/mL (≈ 37.8 µM); in data set [14], 50 µg/mL (≈ 75.7 µM); in [15], greater than 50 µg/mL. Besides, the minimum inhibitory concentration (MIC) in data set [16] is 3.13 µg/mL (≈ 4.74 µM).
As to `CC1(C)S[C@@H]2[C@H](NC(=O)Cc3ccccc3)C(=O)N2[C@H]1C(=O)O` [PCG, benzylpenicillin, reference compound], the zone of inhibition at 100 µg/mL in data set [3] was 22 mm.
`CC(N)C(=O)NC(CO)C(=O)NC(CO)C(=O)NC(CCCNC(=N)N)C(O)CC(=O)OCC1=C(C(=O)O)N2C(=O)C(NC(=O)CCCC(N)C(=O)O)C2SC1` (stereo not drawn) [TAN-592F]: the Solubility entry in data set [2] (setting [18]) is reported as “Sparingly soluble”; in [2] (setting [19]) it was “Easily soluble”. Besides, the MIC in data set [4] was 1.56 µg/mL (≈ 1.91 µM); in data set [5], greater than 50 µg/mL; in data set [6], greater than 50 µg/mL; in [7] it was greater than 50 µg/mL; in data set [8], greater than 50 µg/mL; in [9], 50 µg/mL (≈ 61.1 µM). The MIC in data set [10] was 1.56 µg/mL (≈ 1.91 µM); in data set [11], greater than 50 µg/mL; in data set [12], greater than 50 µg/mL; in data set [13], 12.5 µg/mL (≈ 15.3 µM); in data set [14], greater than 50 µg/mL; in data set [15] it was 50 µg/mL (≈ 61.1 µM). In data set [16], this compound had an MIC of 3.13 µg/mL (≈ 3.82 µM).
For `N=C(N)NCCCC(NC(=O)C(CO)NC(=O)C(N)CO)C(O)CC(=O)OCC1=C(C(=O)O)N2C(=O)C(NC(=O)CCCC(N)C(=O)O)C2SC1` (stereo not drawn) [TAN-592E], the Solubility entry in [2] (setting [18]) was “Sparingly soluble”; in data set [2] (setting [19]) it was “Easily soluble”. Moreover, the MIC in data set [4] is 1.56 µg/mL (≈ 2.09 µM); in [5], greater than 50 µg/mL; in [6] it was greater than 50 µg/mL; in data set [7], greater than 50 µg/mL; in data set [8], greater than 50 µg/mL; in data set [9] it was 50 µg/mL (≈ 66.9 µM). Moreover, the MIC was 1.56 µg/mL (≈ 2.09 µM) in data set [10]; greater than 50 µg/mL in data set [11]; greater than 50 µg/mL in [12]; 25 µg/mL (≈ 33.4 µM) in [13]; 50 µg/mL (≈ 66.9 µM) in [14]; greater than 50 µg/mL in data set [15]. Further, the MIC in data set [16] was 3.13 µg/mL (≈ 4.19 µM).
As to `CO[C@@]1(NC(=O)CCC[C@@H](N)C(=O)O)C(=O)N2C(C(=O)O)=C(COC(N)=O)CS[C@@H]21` [CMC, cephamycin C, reference compound], the zone of inhibition at 100 µg/mL in data set [3] amounted to 34 mm. Also, the “diameter of growth inhibition zone” value in data set [17] came out at 34 mm.
